Data reported in ChEMBL document CHEMBL3991601, “The target landscape of clinical kinase drugs” (Science, 2017).
pKd: −log10 of the molar value. The source made the active and inactive calls. Rule as the data show it, for most assays here: actives have a measured Kd and inactives only a lower limit.

Tests used:
[1] = target: T1, Dual specificity mitogen-activated protein kinase kinase 3 (Homo sapiens, UniProt P46734)
T1 sequence (P46734 whole entry): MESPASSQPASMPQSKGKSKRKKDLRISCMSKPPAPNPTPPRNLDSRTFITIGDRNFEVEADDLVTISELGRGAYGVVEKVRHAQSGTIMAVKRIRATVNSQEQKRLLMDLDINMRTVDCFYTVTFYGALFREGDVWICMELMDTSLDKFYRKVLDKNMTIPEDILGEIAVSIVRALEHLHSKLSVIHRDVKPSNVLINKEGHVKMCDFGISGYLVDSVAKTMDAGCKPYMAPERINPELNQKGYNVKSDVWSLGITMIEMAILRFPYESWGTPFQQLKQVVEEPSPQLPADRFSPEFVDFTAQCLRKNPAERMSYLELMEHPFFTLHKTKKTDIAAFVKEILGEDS

[2] = target: Serine/threonine-protein kinase N2 (Homo sapiens, UniProt Q16513)
[3] = target: T2, AarF domain-containing protein kinase 1 (Homo sapiens, UniProt Q86TW2)
T2 sequence (Q86TW2 whole entry): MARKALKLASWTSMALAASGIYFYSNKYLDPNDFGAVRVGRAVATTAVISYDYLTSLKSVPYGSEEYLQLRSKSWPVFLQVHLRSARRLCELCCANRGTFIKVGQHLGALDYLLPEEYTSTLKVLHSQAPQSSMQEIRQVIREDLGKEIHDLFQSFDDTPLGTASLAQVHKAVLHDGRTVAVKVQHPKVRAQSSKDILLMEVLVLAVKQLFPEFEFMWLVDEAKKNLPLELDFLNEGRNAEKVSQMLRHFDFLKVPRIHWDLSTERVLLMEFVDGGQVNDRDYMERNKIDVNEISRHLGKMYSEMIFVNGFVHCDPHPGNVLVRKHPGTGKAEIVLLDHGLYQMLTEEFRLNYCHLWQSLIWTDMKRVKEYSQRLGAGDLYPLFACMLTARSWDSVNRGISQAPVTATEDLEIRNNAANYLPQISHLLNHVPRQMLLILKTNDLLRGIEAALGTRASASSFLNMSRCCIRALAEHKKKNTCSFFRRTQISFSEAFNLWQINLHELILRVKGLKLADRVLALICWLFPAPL

Ephrin type-B receptor 6 = target: T3, Ephrin type-B receptor 6 (Homo sapiens, UniProt O15197)
T3 sequence (O15197 whole entry): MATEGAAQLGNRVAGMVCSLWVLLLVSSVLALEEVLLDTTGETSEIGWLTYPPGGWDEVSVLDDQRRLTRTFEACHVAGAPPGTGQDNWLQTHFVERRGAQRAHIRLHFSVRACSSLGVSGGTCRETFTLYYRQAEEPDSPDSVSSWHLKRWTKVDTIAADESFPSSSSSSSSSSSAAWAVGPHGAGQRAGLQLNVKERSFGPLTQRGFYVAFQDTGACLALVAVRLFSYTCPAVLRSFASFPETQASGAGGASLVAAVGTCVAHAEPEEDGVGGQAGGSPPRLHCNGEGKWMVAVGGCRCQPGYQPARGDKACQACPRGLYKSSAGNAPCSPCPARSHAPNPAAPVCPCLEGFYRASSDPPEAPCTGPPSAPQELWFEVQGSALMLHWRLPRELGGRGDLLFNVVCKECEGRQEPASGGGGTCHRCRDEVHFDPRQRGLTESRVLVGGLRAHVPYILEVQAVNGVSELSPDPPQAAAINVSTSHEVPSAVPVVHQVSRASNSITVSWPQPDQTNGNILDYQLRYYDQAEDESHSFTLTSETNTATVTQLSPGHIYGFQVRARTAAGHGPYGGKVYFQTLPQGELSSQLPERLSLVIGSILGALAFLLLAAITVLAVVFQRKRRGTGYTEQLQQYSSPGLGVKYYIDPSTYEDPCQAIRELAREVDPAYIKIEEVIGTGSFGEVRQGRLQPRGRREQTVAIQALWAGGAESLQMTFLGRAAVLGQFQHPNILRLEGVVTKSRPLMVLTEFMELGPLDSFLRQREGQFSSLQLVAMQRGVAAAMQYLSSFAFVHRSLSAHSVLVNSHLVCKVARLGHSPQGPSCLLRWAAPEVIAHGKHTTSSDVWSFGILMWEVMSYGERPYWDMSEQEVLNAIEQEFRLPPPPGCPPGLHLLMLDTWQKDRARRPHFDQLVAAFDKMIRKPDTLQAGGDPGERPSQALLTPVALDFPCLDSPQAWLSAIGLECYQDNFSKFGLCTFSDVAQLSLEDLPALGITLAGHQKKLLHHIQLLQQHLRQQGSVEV

[4] = target: T4, Serine/threonine-protein kinase D3 (Homo sapiens, UniProt O94806)
T4 sequence (O94806 whole entry): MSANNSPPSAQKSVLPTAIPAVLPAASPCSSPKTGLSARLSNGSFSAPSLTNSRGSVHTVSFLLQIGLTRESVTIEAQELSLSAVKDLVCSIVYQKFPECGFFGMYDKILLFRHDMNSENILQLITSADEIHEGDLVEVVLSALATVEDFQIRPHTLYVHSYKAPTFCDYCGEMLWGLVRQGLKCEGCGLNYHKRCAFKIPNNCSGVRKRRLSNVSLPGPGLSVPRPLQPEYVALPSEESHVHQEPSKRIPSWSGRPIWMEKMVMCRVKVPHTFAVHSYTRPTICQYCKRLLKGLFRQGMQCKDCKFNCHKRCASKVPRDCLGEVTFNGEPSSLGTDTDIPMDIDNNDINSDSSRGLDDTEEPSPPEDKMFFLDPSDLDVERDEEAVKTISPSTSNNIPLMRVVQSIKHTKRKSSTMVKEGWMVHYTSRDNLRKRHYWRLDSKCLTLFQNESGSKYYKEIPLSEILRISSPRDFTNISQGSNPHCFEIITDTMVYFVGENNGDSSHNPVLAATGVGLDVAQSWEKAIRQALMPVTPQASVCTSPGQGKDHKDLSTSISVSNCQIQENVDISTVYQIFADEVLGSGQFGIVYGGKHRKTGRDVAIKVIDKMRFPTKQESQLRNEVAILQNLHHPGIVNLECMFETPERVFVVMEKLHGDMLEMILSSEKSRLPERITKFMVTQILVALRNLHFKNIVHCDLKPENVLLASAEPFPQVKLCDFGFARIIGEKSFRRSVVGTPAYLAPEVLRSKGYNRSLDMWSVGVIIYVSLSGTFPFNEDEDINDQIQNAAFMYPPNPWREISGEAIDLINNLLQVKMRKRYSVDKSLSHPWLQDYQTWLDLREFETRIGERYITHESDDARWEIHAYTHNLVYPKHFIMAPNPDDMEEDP

[5] = target: Casein kinase I isoform alpha (Homo sapiens, UniProt P48729)
Also: in the data inactive means no Kd found up to 30 µM.

Sequence of Serine/threonine-protein kinase N2 (Q16513 whole entry, the tested form may be a part): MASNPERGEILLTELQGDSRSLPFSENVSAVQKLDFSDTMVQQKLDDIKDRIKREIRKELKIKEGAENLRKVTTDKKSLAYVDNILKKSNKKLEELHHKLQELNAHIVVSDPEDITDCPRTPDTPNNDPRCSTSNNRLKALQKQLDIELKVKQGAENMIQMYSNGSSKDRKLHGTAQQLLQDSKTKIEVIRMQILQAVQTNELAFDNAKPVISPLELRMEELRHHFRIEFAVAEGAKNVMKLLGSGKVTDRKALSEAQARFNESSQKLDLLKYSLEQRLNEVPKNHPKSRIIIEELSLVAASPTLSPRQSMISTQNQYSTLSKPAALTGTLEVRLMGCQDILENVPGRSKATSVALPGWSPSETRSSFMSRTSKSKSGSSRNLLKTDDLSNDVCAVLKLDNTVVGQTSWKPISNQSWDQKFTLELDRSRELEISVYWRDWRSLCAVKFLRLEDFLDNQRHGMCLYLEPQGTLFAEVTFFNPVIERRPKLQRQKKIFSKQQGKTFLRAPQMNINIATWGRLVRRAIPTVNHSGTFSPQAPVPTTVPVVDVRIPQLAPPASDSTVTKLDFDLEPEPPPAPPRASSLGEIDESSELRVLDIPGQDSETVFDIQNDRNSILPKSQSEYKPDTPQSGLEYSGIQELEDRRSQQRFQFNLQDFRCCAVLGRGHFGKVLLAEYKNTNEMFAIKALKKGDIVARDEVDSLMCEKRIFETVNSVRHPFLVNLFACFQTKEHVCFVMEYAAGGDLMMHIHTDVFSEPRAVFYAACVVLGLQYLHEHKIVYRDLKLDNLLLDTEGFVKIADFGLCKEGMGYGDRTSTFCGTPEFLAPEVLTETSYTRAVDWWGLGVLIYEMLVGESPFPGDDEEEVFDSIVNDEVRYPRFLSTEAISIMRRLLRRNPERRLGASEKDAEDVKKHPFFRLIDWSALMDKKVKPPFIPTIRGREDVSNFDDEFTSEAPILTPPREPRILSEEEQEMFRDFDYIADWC
Sequence of Casein kinase I isoform alpha (P48729 whole entry, canonical isoform): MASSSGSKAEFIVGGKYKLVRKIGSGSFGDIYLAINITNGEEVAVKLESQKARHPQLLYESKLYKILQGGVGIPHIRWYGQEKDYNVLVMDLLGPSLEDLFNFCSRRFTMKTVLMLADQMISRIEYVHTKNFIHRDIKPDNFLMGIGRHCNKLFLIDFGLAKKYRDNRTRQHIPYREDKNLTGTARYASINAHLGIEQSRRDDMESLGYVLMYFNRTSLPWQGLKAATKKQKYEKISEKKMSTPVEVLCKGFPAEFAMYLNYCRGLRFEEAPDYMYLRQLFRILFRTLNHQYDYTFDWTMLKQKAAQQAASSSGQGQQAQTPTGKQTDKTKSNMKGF

Compound	Kd [1]	Kd [2]	Kd [3]	Kd (Ephrin type-B receptor 6)	Kd [4]	Kd [5]	pKd (Ephrin type-B receptor 6)
CCc1cnn2c(NCc3ccc[n+]([O-])c3)cc(N3CCCC[C@H]3CCO)nc12 [DINACICLIB]	> 30 µM (inactive)	> 30 µM (inactive)	> 30 µM (inactive)	> 30 µM (inactive)	–	–	–
Cn1ncc(Cl)c1-c1cc(C(=O)N[C@H](CN)Cc2cccc(F)c2)sc1Cl [AFURESERTIB]	> 30 µM (inactive)	> 30 µM (inactive)	> 30 µM (inactive)	> 30 µM (inactive)	> 30 µM (inactive)	> 30 µM (inactive)	–
CC[C@H](Nc1ncnc2[nH]cnc12)c1nc2cccc(F)c2c(=O)n1-c1ccccc1 [IDELALISIB]	> 30 µM (inactive)	> 30 µM (inactive)	> 30 µM (inactive)	> 30 µM (inactive)	> 30 µM (inactive)	> 30 µM (inactive)	–
O=C(O)[C@]1(Cc2cccc(Nc3nccs3)n2)CC[C@@H](Oc2cccc(Cl)c2F)CC1 [MK-5108]	> 30 µM (inactive)	> 30 µM (inactive)	> 30 µM (inactive)	> 30 µM (inactive)	> 30 µM (inactive)	> 30 µM (inactive)	–
CN(C)C(=O)c1cc2cnc(Nc3ccc(N4CCNCC4)cn3)nc2n1C1CCCC1 [RIBOCICLIB]	> 30 µM (inactive)	> 30 µM (inactive)	> 30 µM (inactive)	> 30 µM (inactive)	> 30 µM (inactive)	> 30 µM (inactive)	–
C[C@@H]1CN(Cc2ccc(F)cc2)[C@@H](C)CN1C(=O)c1cc2c(C(=O)C(=O)N(C)C)cn(C)c2cc1Cl [TALMAPIMOD]	> 30 µM (inactive)	> 30 µM (inactive)	> 30 µM (inactive)	> 30 µM (inactive)	> 30 µM (inactive)	> 30 µM (inactive)	–
O=C1NC(=O)/C(=C/c2ccc3nccc(-c4ccncc4)c3c2)S1 [GSK-1059615]	> 30 µM (inactive)	> 30 µM (inactive)	> 30 µM (inactive)	> 30 µM (inactive)	> 30 µM (inactive)	> 30 µM (inactive)	–
Cn1cc(-c2ccc3nnc(C(F)(F)c4ccc5ncccc5c4)n3n2)cn1 [JNJ-38877605]	> 30 µM (inactive)	> 30 µM (inactive)	> 30 µM (inactive)	> 30 µM (inactive)	> 30 µM (inactive)	> 30 µM (inactive)	–
CO[C@H]1C[C@@H]2CC[C@@H](C)[C@@](O)(O2)C(=O)C(=O)N2CCCC[C@H]2C(=O)O[C@H]([C@H](C)C[C@@H]2CC[C@@H](OCCO)[C@H](OC)C2)CC(=O)[C@H](C)/C=C(\C)[C@@H](O)[C@@H](OC)C(=O)[C@H](C)C[C@H](C)/C=C/C=C/C=C/1C [EVEROLIMUS]	> 30 µM (inactive)	> 30 µM (inactive)	> 30 µM (inactive)	> 30 µM (inactive)	> 30 µM (inactive)	> 30 µM (inactive)	–
CC(C)Nc1cc(-c2c[nH]c(C(=O)N[C@H](CO)c3cccc(Cl)c3)c2)c(Cl)cn1 [ULIXERTINIB]	> 30 µM (inactive)	> 30 µM (inactive)	> 30 µM (inactive)	> 30 µM (inactive)	> 30 µM (inactive)	> 30 µM (inactive)	–
COc1cc2nccc(Oc3ccc(NC(=O)NC4CC4)c(Cl)c3)c2cc1C(N)=O [LENVATINIB]	> 30 µM (inactive)	> 30 µM (inactive)	> 30 µM (inactive)	> 30 µM (inactive)	> 30 µM (inactive)	> 30 µM (inactive)	–
OCCn1cc(-c2cnc3nnn(Cc4ccc5ncccc5c4)c3n2)cn1 [PF-04217903]	> 30 µM (inactive)	> 30 µM (inactive)	> 30 µM (inactive)	> 30 µM (inactive)	–	–	–
CN1CCN(c2ccc3nc(-c4c(N)c5c(F)cccc5[nH]c4=O)[nH]c3c2)CC1 [DOVITINIB]	–	–	> 30 µM (inactive)	–	–	–	–
Cc1cc(Nc2cc(N3CCN(C)CC3)nc(/C=C/c3ccccc3)n2)n[nH]1 [ENMD-2076]	> 30 µM (inactive)	–	> 30 µM (inactive)	> 30 µM (inactive)	–	–	–
Cc1ccc(NC(=O)c2ccc(CN3CC[C@H](N(C)C)C3)c(C(F)(F)F)c2)cc1Nc1nccc(-c2cncnc2)n1 [BAFETINIB]	> 30 µM (inactive)	> 30 µM (inactive)	> 30 µM (inactive)	> 30 µM (inactive)	> 30 µM (inactive)	–	–
CCn1c(-c2nonc2N)nc2c(C#CC(C)(C)O)ncc(OC[C@H]3CCCNC3)c21 [GSK-690693]	–	–	> 30 µM (inactive)	–	–	–	–
O=C(Nc1cccc(Cl)c1)Nc1ncc(CCNc2ncnc3ccsc23)s1 [SNS-314]	–	–	> 30 µM (inactive)	–	–	–	–
Cc1cn(-c2cc(NC(=O)c3ccc(C)c(Nc4nccc(-c5cccnc5)n4)c3)cc(C(F)(F)F)c2)cn1 [NILOTINIB]	–	–	> 30 µM (inactive)	–	–	–	–
Nc1nc(N)c2nc(-c3cccc(O)c3)c(-c3cccc(O)c3)nc2n1 [TG100-115]	–	–	> 30 µM (inactive)	–	–	–	–
CN1N=C(N)c2cn([C@@H]3O[C@H](COP(=O)(O)O)[C@@H](O)[C@H]3O)c3ncnc1c23 [TRICIRIBINE PHOSPHATE]	> 30 µM (inactive)	> 30 µM (inactive)	> 30 µM (inactive)	–	> 30 µM (inactive)	> 30 µM (inactive)	–
COC(=O)[C@@]1(O)C[C@H]2O[C@]1(C)n1c3ccccc3c3c4c(c5c6ccccc6n2c5c31)C(=O)NC4 [K-252A]	> 30 µM (inactive)	0.361 µM (active)	6.09 µM (active)	> 30 µM (inactive)	–	> 30 µM (inactive)	–
CCS(=O)(=O)N1CC(CC#N)(n2cc(-c3ncnc4[nH]ccc34)cn2)C1 [BARICITINIB]	> 30 µM (inactive)	–	> 30 µM (inactive)	> 30 µM (inactive)	> 30 µM (inactive)	> 30 µM (inactive)	–
Cc1nc(N)sc1-c1ccnc(Nc2ccc(N3CCOCC3)cc2)n1 [CYC-116]	> 30 µM (inactive)	–	0.545 µM (active)	–	–	–	7.14
